The experiment concerns BDF1 mice, P388 leukemia ip, median survival T/C. Briefly: NCI In Vivo Anticancer Drug Screen. Data for tumor model P388 Leukemia (intraperitoneal) in B6D2F1 (BDF1) mice. The note with it: endpoint: median survival time, higher = longer survival. Summed up: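 Read-out is survival of treated animals expressed relative to the vehicle group, as a T/C ratio.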
[1] abbreviates: dose: 100.0 mg/kg/injection, schedule: Q01DX009 (ip), vehicle: Klucel (hydroxypropylcellulose) (HPC).
Setting [2] is: dose: 100.0 mg/kg/injection, schedule: Q04DX003 (ip), vehicle: Klucel (hydroxypropylcellulose) (HPC).
The mark [3] stands for this setting: dose: 200.0 mg/kg/injection, schedule: Q01DX009 (ip), vehicle: Klucel (hydroxypropylcellulose) (HPC).
Setting [4] is: dose: 400.0 mg/kg/injection, schedule: Q01DX009 (ip), vehicle: Klucel (hydroxypropylcellulose) (HPC).
[5] abbreviates: dose: 400.0 mg/kg/injection, schedule: Q04DX003 (ip), vehicle: Klucel (hydroxypropylcellulose) (HPC).
The mark [6] stands for this setting: dose: 50.0 mg/kg/injection, schedule: Q01DX009 (ip), vehicle: Klucel (hydroxypropylcellulose) (HPC).
Setting [7] is: dose: 100.0 mg/kg/injection, schedule: Q01DX001 (ip), vehicle: saline with Tween-80.

Values joined by “and” are separate entries in the source; they are usually repeats but may differ in a detail not shown here. Identical values can stand only once. Toxic doses and inconclusive results are not listed.

With `Clc1cccc(Cl)c1Br`, the T/C was 95 % of control (dose: 50.0 mg/kg/injection, schedule: Q04DX003 (ip), vehicle: gum acacia); 100 % of control under setting [1]; 88 % of control under setting [2]; 108 % of control (dose: 100.0 mg/kg/injection, schedule: Q04DX003 (ip), vehicle: gum acacia); 109 % of control under setting [3]; 100 % of control (dose: 200.0 mg/kg/injection, schedule: Q04DX003 (ip), vehicle: gum acacia). Also, the T/C reads like this: under setting [4], 90 % of control; under setting [5], 115 % of control.

For `COc1cc(C=Nc2cc(Br)cc(Br)c2)ccc1N(CCCl)CCCl`, the T/C (dose: 18.75 mg/kg/injection, schedule: Q04DX003 (ip), vehicle: other) was 204 % of control; the T/C (dose: 22.0 mg/kg/injection, schedule: Q04DX003 (ip), vehicle: saline with Tween-80) was 200 % of control; the T/C (dose: 33.0 mg/kg/injection, schedule: Q04DX003 (ip), vehicle: saline with Tween-80) is 222 % of control; the T/C (dose: 37.5 mg/kg/injection, schedule: Q04DX003 (ip), vehicle: other) was 250 % of control; the T/C (dose: 50.0 mg/kg/injection, schedule: Q04DX003 (ip), vehicle: saline with Tween-80) was 218 % of control; the T/C (dose: 60.0 mg/kg/injection, schedule: Q04DX003 (ip), vehicle: saline with Tween-80) is 272 % of control. The T/C is 250 % of control (dose: 75.0 mg/kg/injection, schedule: Q04DX003 (ip), vehicle: other); 154 % of control (dose: 100.0 mg/kg/injection, schedule: Q04DX003 (ip), vehicle: saline sonified); 263 % of control (dose: 200.0 mg/kg/injection, schedule: Q04DX003 (ip), vehicle: saline sonified); 118 % of control (dose: 400.0 mg/kg/injection, schedule: Q04DX003 (ip), vehicle: saline sonified).

For `c1ccc(C2C(c3ccnc4c3ccc3ccccc34)C(c3ccccc3)C2c2ccnc3c2ccc2ccccc23)cc1` (centres undefined), the T/C is, setting by setting: (dose: 25.0 mg/kg/injection, schedule: Q01DX001 (ip), vehicle: Klucel (hydroxypropylcellulose) (HPC)) 93 % of control and 91 % of control; (dose: 50.0 mg/kg/injection, schedule: Q01DX001 (ip), vehicle: Klucel (hydroxypropylcellulose) (HPC)) 97 % of control and 100 % of control; (dose: 100.0 mg/kg/injection, schedule: Q01DX001 (ip), vehicle: Klucel (hydroxypropylcellulose) (HPC)) 100 % of control and 106 % of control.

On to `O=[N+]([O-])c1cccc(C=Nc2cccc(C(F)(F)F)c2)c1`, for which the T/C by setting is: (dose: 3.0 mg/kg/injection, schedule: Q01DX009 (ip), vehicle: Klucel (hydroxypropylcellulose) (HPC)) 95 % of control; (dose: 6.0 mg/kg/injection, schedule: Q01DX009 (ip), vehicle: Klucel (hydroxypropylcellulose) (HPC)) 95 % of control; (dose: 12.0 mg/kg/injection, schedule: Q01DX009 (ip), vehicle: Klucel (hydroxypropylcellulose) (HPC)) 100 % of control; under setting [2], 104 % of control; (dose: 200.0 mg/kg/injection, schedule: Q04DX003 (ip), vehicle: Klucel (hydroxypropylcellulose) (HPC)) 95 % of control; under setting [5], 95 % of control.

As to `CCCCCCCCC(=O)c1c(OC)oc(/C=N/O)cc1=O`, the T/C reads like this: (dose: 1.56 mg/kg/injection, schedule: Q01DX009 (ip), vehicle: Klucel (hydroxypropylcellulose) (HPC)) 94 % of control; (dose: 3.13 mg/kg/injection, schedule: Q01DX009 (ip), vehicle: Klucel (hydroxypropylcellulose) (HPC)) 107 % of control; (dose: 6.25 mg/kg/injection, schedule: Q01DX009 (ip), vehicle: Klucel (hydroxypropylcellulose) (HPC)) 97 % of control.

`COc1cccc(C2N=NC3=C(CCCC3)N2O)c1O` (centres undefined): the T/C is 95 % of control (dose: 25.0 mg/kg/injection, schedule: Q01DX009 (ip), vehicle: Klucel (hydroxypropylcellulose) (HPC)); 87 % of control under setting [6]; 96 % of control under setting [3].

Regarding `CCCCCCCCCCCCSCCSCCSCCCCCCCCCCCC`, the T/C is 95 % of control under setting [7]; 95 % of control (dose: 200.0 mg/kg/injection, schedule: Q01DX001 (ip), vehicle: saline with Tween-80); 90 % of control (dose: 400.0 mg/kg/injection, schedule: Q01DX001 (ip), vehicle: saline with Tween-80).

Regarding `O=C(c1ccccc1)C(Br)C(Br)C(=O)c1ccccc1` (centres undefined), the T/C by setting is: under setting [1], 115 % of control; under setting [3], 100 % of control; under setting [4], 95 % of control.

Take `Cc1cc2no[n+]([O-])c2cc1C`: the T/C was 109 % of control under setting [6], 109 % of control under setting [1] and 109 % of control under setting [3].

Regarding `Nc1nc(=S)c2[nH]c(=S)[nH]c2[nH]1`, the T/C (dose: 78.0 mg/kg/injection, schedule: Q04DX003 (ip), vehicle: saline with Tween-80) was 104 % of control; the T/C (dose: 118.0 mg/kg/injection, schedule: Q04DX003 (ip), vehicle: saline with Tween-80) was 112 % of control; the T/C (dose: 400.0 mg/kg/injection, schedule: Q04DX003 (ip), vehicle: saline with Tween-80) was 172 % of control; the T/C (dose: 600.0 mg/kg/injection, schedule: Q04DX003 (ip), vehicle: saline with Tween-80) is 186 % of control.

With `O=P(NC12CC3CC(CC(C3)C1)C2)(N1CC1)N1CC1`, the T/C is 120 % of control (dose: 2.2 mg/kg/injection, schedule: Q01DX009 (ip), vehicle: Klucel (hydroxypropylcellulose) (HPC)); 183 % of control (dose: 4.4 mg/kg/injection, schedule: Q01DX009 (ip), vehicle: Klucel (hydroxypropylcellulose) (HPC)); 238 % of control and 154 % of control and 211 % of control (dose: 6.6 mg/kg/injection, schedule: Q01DX009 (ip), vehicle: Klucel (hydroxypropylcellulose) (HPC)); 244 % of control and 88 % of control and 122 % of control (dose: 10.0 mg/kg/injection, schedule: Q01DX009 (ip), vehicle: Klucel (hydroxypropylcellulose) (HPC)); 105 % of control (dose: 15.0 mg/kg/injection, schedule: Q01DX009 (ip), vehicle: Klucel (hydroxypropylcellulose) (HPC)).

For `CC[N+](C)(C)CC`, the T/C is 105 % of control (dose: 25.0 mg/kg/injection, schedule: Q01DX001 (ip), vehicle: saline); 103 % of control (dose: 50.0 mg/kg/injection, schedule: Q01DX001 (ip), vehicle: saline); 96 % of control and 117 % of control (dose: 100.0 mg/kg/injection, schedule: Q01DX001 (ip), vehicle: saline).

On to `Cc1ccc(C)c2c1[nH]c1c(C)c3ccncc3c(C)c12`, for which the T/C is, setting by setting: (dose: 25.0 mg/kg/injection, schedule: Q01DX001 (ip), vehicle: saline with Tween-80) 101 % of control; (dose: 50.0 mg/kg/injection, schedule: Q01DX001 (ip), vehicle: saline with Tween-80) 91 % of control; under setting [7], 96 % of control.

As for `CN(C)C(=O)NNC(=O)N(C)C`, the T/C is, setting by setting: (dose: 100.0 mg/kg/injection, schedule: Q01DX009 (ip), vehicle: saline) 104 % of control; (dose: 100.0 mg/kg/injection, schedule: Q04DX003 (ip), vehicle: saline) 100 % of control; (dose: 200.0 mg/kg/injection, schedule: Q01DX009 (ip), vehicle: saline) 95 % of control; (dose: 200.0 mg/kg/injection, schedule: Q04DX003 (ip), vehicle: saline) 100 % of control; (dose: 400.0 mg/kg/injection, schedule: Q01DX009 (ip), vehicle: saline) 95 % of control; (dose: 400.0 mg/kg/injection, schedule: Q04DX003 (ip), vehicle: saline) 100 % of control.

For the compound `O=S(/C=C/c1ccccc1)c1ccccc1` (centres undefined), the T/C runs as follows: (dose: 50.0 mg/kg/injection, schedule: Q01DX009 (ip), vehicle: other) 104 % of control; (dose: 100.0 mg/kg/injection, schedule: Q01DX009 (ip), vehicle: other) 100 % of control; (dose: 200.0 mg/kg/injection, schedule: Q01DX009 (ip), vehicle: other) 104 % of control.

On to `C1CN2CCC1CC2`, for which the T/C was 107 % of control (dose: 12.5 mg/kg/injection, schedule: Q01DX009 (ip), vehicle: saline with Tween-80); 101 % of control (dose: 22.0 mg/kg/injection, schedule: Q01DX009 (ip), vehicle: saline with Tween-80); 119 % of control (dose: 25.0 mg/kg/injection, schedule: Q01DX009 (ip), vehicle: saline with Tween-80); 122 % of control (dose: 33.0 mg/kg/injection, schedule: Q01DX009 (ip), vehicle: saline with Tween-80).

Take `COc1ccc2c(c1)CC1NCCc3cc4c(c-2c31)OCO4` (centres undefined): the T/C (dose: 50.0 mg/kg/injection, schedule: Q01DX009 (ip), vehicle: saline with Tween-80) was 114 % of control and the T/C (dose: 100.0 mg/kg/injection, schedule: Q01DX009 (ip), vehicle: saline with Tween-80) is 97 % of control.

For the compound `CC[C@H](CC[C@@H](C)[C@H]1CC[C@H]2[C@@H]3CC=C4C[C@@H](OC(=O)CN5CCNCC5)CC[C@]4(C)[C@H]3CC[C@]12C)C(C)C`, the T/C is 104 % of control under setting [6] and 104 % of control under setting [1].

The record behind these values is PubChem BioAssay AID328 (DTP/NCI, 2004).
